We go through 4 molecules from patent publication US9885060B2, “Alkene production” (Evonik Degussa GmbH, priority 2015, dated 2018).

Type in all cases: biochemical
In assay [1] the test system is OleT. The assay is described as follows: Decarboxylation of FAs C22 to C4 employing the FDH-CamAB-OleT redox-cascade. The following applies: for Conversion / α-Olefin / Selectivity α-OH / Selectivity α-Olefin / Selectivity β-OH / Selectivity n-Alkanone: 10 mM substrate. How it is done: (§1) Enzymatic reactions (1 mL scale) were quenched by addition of 100 μL 5 N Extraction of substrate and products was performed with 500 μL EtOAc containing 0.1% 1-decanol as internal standard. The organic phase was dried over anhydrous Na2SO4. Derivatization of carboxylic acids (fatty acids and hydroxy acids) to the corresponding methyl esters was achieved by mixing the organic phase with MeOH (2.5:1.5 v/v) followed by supplementation of 5 to 15 μL of 2 M TMSCHN2 (trimethylsilyldiazomethane in diethyl ether). The mixture was incubated for 30 min, 25° C. and 750 rpm before injection into GC-FID or GC-MS, Extraction and derivatization of products and substrates from conversion of short chain FAs ([…]) was performed using the same protocol but all steps were performed on ice to prevent undesired loss of volatile products.
(§2) Products from FA substrates with chain lengths ranging from C22 to C10 were separated on a HP5 column (Programm) and detected by GC-FID or GC-MS. Extracted products from conversion of nonanoic acid (I-octene as product) were separated on a DB1702 column (Programm) and detected by GC-FID. Authentic standards of substrates and terminal olefins were treated as described above and were used as references for identification and preparation of calibration curves. Detection of volatile short chain terminal olefins (1-butene/1-propene [ongoing] to 1-heptene) was accomplished by manual injection from vial headspaces into GC-MS, in order to prevent loss of products, the vials containing the reaction mixtures were sealed with a PTFE septum. After conversion the closed vial was heated for 10 min at 80° C., together with a 10 ml syringe (TYPE). From the headspace 2 to 9 μl volumes were injected splitless into a GC-MS chromatograph and analytes were separated on a HP5 column (Programm). Calibration curves for 1-pentene, 1-hexene and 1-heptene were prepared in the same way at 4° C. and using 5% DMF as cosolvent.
The substrate scope of OleT was further investigated by varying the FA chain length from C3 to C22. […] For the first time, short EAs could be decarboxylated to the corresponding olefins, covering the whole spectrum from C11 down to C4. […] Due to the high volatility of short chain olefins, product work up was done at 4° C. […] (2.53 mM product from 5 mM lauric acid). Head-space analysis by GC-MS from reactions with short chain FAs (C8-C5) confirmed the formation of the respective α-olefins, allowing the first biotechnological access to 1-heptene, 1-hexene and 1-pentene and 1-butene with OleT.
Conversion of heptanoic acid was carried out as described in Example 4 using the OleTCamAB-FDH reaction cascade.
Calibration curves for 1-hexene were prepared accordingly ranging from 0.05 to 2 mM. Due to a strong overlap of […] with the peak areas of CO2 and EtOH (FIG. 1, peaks a, b and c) the ion extraction mode of the GC-MS to generate reliable calibration curves was used. Neither CO2 nor EtOH interfered with the product peak area. This can be seen comparing FIGS. 1 and 5 which allow reliable and linear quantification of 1-hexene (FIG. 6) using manual headspace GC-MS injection.
Manual headspace injection into GC-MS was successfully performed for all substrates with chain lengths of C11 to C6. Conversion of 10 mM heptanoic acid allowed reliable formation of up to 1.3 mM 1-hexene without further optimization of the reaction conditions.

For assay [2], the system named is OleT. The assay can be described thus: Decarboxylation of stearic and palmitic acid by OleT using O2/CamAB or H2O2 as oxidant. The settings on record: 1 μM OleT, 1 mM substrate.
Assay [3] has as its system OleT. The assay can be described thus: Decarboxylation of stearic acid by OleT with CamAB redox cascade and NAD(P)H regeneration system (GDH, PDH, FDH). How it is done:
as §1, §2
After 24 h reaction time, product concentrations of 1.16 mM (0.27 g L-1) 1-heptadecene and 1 mM (0.21 g L-1) 1-pentadecene were obtained but could not be further enhanced. […] Compared to a previously published whole cell reaction system, this FDH-driven system allows 6 times higher product titer and a 21 times higher volumetric productivity with 42.5 mg L-1 h-1 of α-olefin after 8 h reaction time vs: 98 mg L-1 in 48 h) (Table 2).

Setting [4] is: 200 μM NADPH + O2, CamAB, 60 min.
The mark [5] stands for this setting: 1 mM H2O2, 150 min, no CamAB, strong precipitation observed.
[6] abbreviates: 1 mM NADPH + O2, CamAB, 150 min.
Setting [7] is: FDH-based regeneration, 5 mM stearic acid.
Where [8] appears, read: Formate [8 h], FDH-CamAB, purified OleT 3 μM, 5 mM stearic acid.
Where [9] appears, read: Formate, FDH-(Fdr/Fdx) without CamAB, cell free lysate OleT 3 μM, 5 mM stearic acid, 24 h.
Where [10] appears, read: Formate, FDH-CamAB, purified OleT 1.5 μM, 5 mM stearic acid, 24 h.
The mark [11] stands for this setting: Formate, FDH-CamAB-Fdr/Fdx, cell free lysate OleT 3 μM, 5 mM stearic acid, 24 h.
Where [12] appears, read: Glucose, GDH-CamAB, purified OleT 1.5 μM, 5 mM stearic acid, 24 h.
Where [13] appears, read: PDH-based regeneration, 5 mM stearic acid.
The mark [14] stands for this setting: Phosphite, PDH-CamAB, purified OleT 1.5 μM, 5 mM stearic acid, 24 h.

Some results are limits rather than exact numbers.

In the assay on OleT [1] (4 °C, 72 h), `CCCCCCCCC(=O)O` [C9, nonanoic acid] yielded a Conversion of 13% and a α-Olefin of 1347 µM. Moreover, in the assay with OleT [1] (25 °C, 24 h), the Conversion came to 18%, the “Selectivity α-OH” value is reported as 17 % GC-area, the “Selectivity α-Olefin” value stood at 53 % GC-area and the “Selectivity β-OH” value is 30 % GC-area. The same molecule registered a α-Olefin in the assay on OleT [1] (25 °C, 24 h) of 1829 µM.

As to `CCCCCCCCCCCC(=O)O` [C12, lauric acid], the product concentration in the assay on OleT [1] (4° C., 5 mM lauric acid) is on record as 2.53 mM. In the assay on OleT [1] (4 °C, 72 h), the Conversion was 33%, the “Selectivity α-Olefin” value worked out at 73 % GC-area, the “Selectivity β-OH” value is reported as 30 % GC-area and the α-Olefin came to 3260 µM. In the assay with OleT [1] (25 °C, 24 h), the Conversion is listed as 3% and the α-Olefin was determined as 273 µM.

Take `CCCCCCCCCCCCCCCCCC(=O)O` [Stearic Acid, stearic acid]: the Conversion with OleT [1] (4 °C, 72 h) turned out to be 25%; in the assay with OleT [1] (25 °C, 24 h) it was 39%; in the assay with OleT [3] (setting [7]), 62%; in the assay with OleT [3] (GDH-based system, 1 mM stearic acid), 36%; with OleT [3] (setting [13]), 52%. The “Selectivity n-Alkanone” value in the assay with OleT [1] (4 °C, 72 h) was determined as 5 % GC-area; in the assay on OleT [1] (25 °C, 24 h), 6 % GC-area. In addition, the “Selectivity α-OH” value with OleT [1] (4 °C, 72 h) is on record as less than 1 % GC-area; in the assay with OleT [1] (25 °C, 24 h) it was 2 % GC-area. Moreover, the “Selectivity α-Olefin” value worked out at 93 % GC-area in the assay on OleT [1] (4 °C, 72 h) and 86 % GC-area in the assay on OleT [1] (25 °C, 24 h). The “Selectivity β-OH” value is given as 5 % GC-area in the assay with OleT [1] (4 °C, 72 h) and 8 % GC-area in the assay with OleT [1] (25 °C, 24 h). For the same molecule, the α-Olefin in the assay on OleT [1] (4 °C, 72 h) came to 2451 µM; in the assay with OleT [1] (25 °C, 24 h) it was 3886 µM; in the assay on OleT [2] (200 μM H2O2, 60 min, no CamAB) it was 170 ± 7 µM; with OleT [2] (200 μM NADH + O2, CamAB, 6 min), 15 ± 1 µM; with OleT [2] (setting [4]), 53 ± 5 µM; in the assay with OleT [2] (setting [5]), 53 ± 15 µM. Also, the α-Olefin amounted to 20 ± 2 µM in the assay on OleT [2] (1 mM NADH + O2, CamAB, 60 min); 118 ± 23 µM with OleT [2] (setting [6]); 1419 µM in the assay on OleT [3] (setting [8]); 452 ± 52 µM with OleT [3] (setting [9]); 3144 ± 121 µM in the assay on OleT [3] (setting [10]); 1565 ± 20 µM in the assay with OleT [3] (setting [11]). The α-Olefin with OleT [3] (setting [12]) was found to be 1020 ± 63 µM; with OleT [3] (setting [14]) it was 2609 ± 256 µM. For the same molecule, in the assay with OleT [1] (RT, 5 mM stearic acid), the maximum product concentration stood at 2.45 mM. Also, the Coupling with OleT [2] (200 μM H2O2, 60 min, no CamAB) was 85%; with OleT [2] (200 μM NADH + O2, CamAB, 6 min), 7%; in the assay on OleT [2] (setting [4]) it was 25%; in the assay on OleT [2] (setting [5]), 5%; in the assay on OleT [2] (1 mM NADH + O2, CamAB, 60 min), 2%; in the assay with OleT [2] (setting [6]), 11%. In addition, the TOF with OleT [2] (200 μM H2O2, 60 min, no CamAB) is 170 h⁻¹; in the assay with OleT [2] (200 μM NADH + O2, CamAB, 6 min), 150 h⁻¹; with OleT [2] (setting [4]), 53 h⁻¹; in the assay with OleT [2] (setting [5]) it was 21 h⁻¹; in the assay on OleT [2] (1 mM NADH + O2, CamAB, 60 min), 20 h⁻¹; in the assay on OleT [2] (setting [6]), 47 h⁻¹. For the same molecule, the TON turned out to be 170 in the assay on OleT [2] (200 μM H2O2, 60 min, no CamAB); 15 with OleT [2] (200 μM NADH + O2, CamAB, 6 min); 53 in the assay on OleT [2] (setting [4]); 53 in the assay with OleT [2] (setting [5]); 20 with OleT [2] (1 mM NADH + O2, CamAB, 60 min); 118 in the assay with OleT [2] (setting [6]). The TIN is given as 2096 in the assay on OleT [3] (setting [7]); “up to 389” with OleT [3] (GDH-based system, 10 mM stearic acid); 1739 in the assay with OleT [3] (setting [13]). Further, in the assay on OleT [3] (FDH-driven system, after 8 h reaction time), the “volumetric productivity of α-olefin” value is 42.5 mg/L/h. The Product in the assay on OleT [3] (setting [8]) was 0.34 g/L; with OleT [3] (setting [9]) it was 0.1 g/L; in the assay on OleT [3] (setting [10]) it was 0.75 g/L; with OleT [3] (setting [11]) it was 0.37 g/L; in the assay on OleT [3] (setting [12]), 0.24 g/L; in the assay with OleT [3] (setting [14]), 0.62 g/L. In addition, the TTN with OleT [3] (setting [8]) is listed as 473; in the assay with OleT [3] (setting [9]), 151; in the assay with OleT [3] (setting [10]) it was 2096; in the assay with OleT [3] (setting [11]), 522; in the assay with OleT [3] (setting [12]), 680; in the assay with OleT [3] (setting [14]), 1739.

Regarding `CCCCCCCCCC(=O)O` [C10, capric acid/decanoic acid], in the assay with OleT [1] (4 °C, 72 h), the Conversion was 0.7%, the “Selectivity α-Olefin” value is on record as more than 99 % GC-area and the α-Olefin worked out at 71 µM. Besides, in the assay on OleT [1] (25 °C, 24 h), the Conversion came out at 0.4%, the “Selectivity α-Olefin” value is more than 99 % GC-area, the “Selectivity β-OH” value was “Traces” and the α-Olefin worked out at 44 µM.
